Results published in ChEMBL document CHEMBL2202954, “The effect of PLC-γ2 inhibitors on the growth of human tumour cells” (2012).

Columns and labels:
Assay type in all cases: functional
T47D = assay: Cytotoxicity against human T47D cells assessed as cellular growth at 10 uM by SRB assay
SW-620 = assay: Cytotoxicity against human SW620 cells assessed as cellular growth at 10 uM by SRB assay
BT-549 = assay: Cytotoxicity against human BT549 cells assessed as cellular growth at 10 uM by SRB assay
UACC-257 = assay: Cytotoxicity against human UACC257 cells assessed as cellular growth at 10 uM by SRB assay
HCC 2998 = assay: Cytotoxicity against human HCC2998 cells assessed as cellular growth at 10 uM by SRB assay
[1] = Cytotoxicity against human NCI-ADR-RES cells assessed as cellular growth at 10 uM by SRB assay
UACC-62 = assay: Cytotoxicity against human UACC62 cells assessed as cellular growth at 10 uM by SRB assay
NCI-H460 = assay: Cytotoxicity against human NCI-H460 cells assessed as cellular growth at 10 uM by SRB assay
K562 = assay: Cytotoxicity against human K562 cells assessed as cellular growth at 10 uM by SRB assay
OVCAR-8 = assay: Cytotoxicity against human OVCAR8 cells assessed as cellular growth at 10 uM by SRB assay
LOX IMVI = assay: Cytotoxicity against human LOXIMVI cells assessed as cellular growth at 10 uM by SRB assay
SF-539 = assay: Cytotoxicity against human SF539 cells assessed as cellular growth at 10 uM by SRB assay
RXF 393 = assay: Cytotoxicity against human RXF393 cells assessed as cellular growth at 10 uM by SRB assay
HOP-92 = assay: Cytotoxicity against human HOP92 cells assessed as cellular growth at 10 uM by SRB assay
U-251 = assay: Cytotoxicity against human U251 cells assessed as cellular growth at 10 uM by SRB assay
A498 = assay: Cytotoxicity against human A498 cells assessed as cellular growth at 10 uM by SRB assay
UO-31 = assay: Cytotoxicity against human UO31 cells assessed as cellular growth at 10 uM by SRB assay
MDA-MB-468 = assay: Cytotoxicity against human MDA-MB-468 cells assessed as cellular growth at 10 uM by SRB assay
CCRF-CEM = assay: Cytotoxicity against human CCRF-CEM cells assessed as cellular growth at 10 uM by SRB assay
NCI-H226 = assay: Cytotoxicity against human NCI-H226 cells assessed as cellular growth at 10 uM by SRB assay
SK-MEL-5 = assay: Cytotoxicity against human SK-MEL-5 cells assessed as cellular growth at 10 uM by SRB assay
SK-OV-3 = assay: Cytotoxicity against human SKOV3 cells assessed as cellular growth at 10 uM by SRB assay
OVCAR-5 = assay: Cytotoxicity against human OVCAR5 cells assessed as cellular growth at 10 uM by SRB assay
MDA-MB-231 = assay: Cytotoxicity against human MDA-MB-231 cells assessed as cellular growth at 10 uM by SRB assay
786-0 = assay: Cytotoxicity against human 786-0 cells assessed as cellular growth at 10 uM by SRB assay
OVCAR-3 = assay: Cytotoxicity against human OVCAR3 cells assessed as cellular growth at 10 uM by SRB assay
SK-MEL-28 = assay: Cytotoxicity against human SK-MEL-28 cells assessed as cellular growth at 10 uM by SRB assay
NCI-H322M = assay: Cytotoxicity against human NCI-H322M cells assessed as cellular growth at 10 uM by SRB assay
SF-268 = assay: Cytotoxicity against human SF268 cells assessed as cellular growth at 10 uM by SRB assay
MOLT-4 = assay: Cytotoxicity against human MOLT4 cells assessed as cellular growth at 10 uM by SRB assay
NCI-H23 = assay: Cytotoxicity against human NCI-H23 cells assessed as cellular growth at 10 uM by SRB assay
HOP-62 = assay: Cytotoxicity against human HOP62 cells assessed as cellular growth at 10 uM by SRB assay
NCI-H522 = assay: Cytotoxicity against human NCI-H522 cells assessed as cellular growth at 10 uM by SRB assay
M14 = assay: Cytotoxicity against human M14 cells assessed as cellular growth at 10 uM by SRB assay
IGROV-1 = assay: Cytotoxicity against human IGROV1 cells assessed as cellular growth at 10 uM by SRB assay
A549 = assay: Cytotoxicity against human A549 cells assessed as cellular growth at 10 uM by SRB assay
KM12 = assay: Cytotoxicity against human KM12 cells assessed as cellular growth at 10 uM by SRB assay
SNB-19 = assay: Cytotoxicity against human SNB19 cells assessed as cellular growth at 10 uM by SRB assay
HT-29 = assay: Cytotoxicity against human HT-29 cells assessed as cellular growth at 10 uM by SRB assay
SK-MEL-2 = assay: Cytotoxicity against human SK-MEL-2 cells assessed as cellular growth at 10 uM by SRB assay
PC-3 = assay: Cytotoxicity against human PC3 cells assessed as cellular growth at 10 uM by SRB assay
MCF7 = assay: Cytotoxicity against human MCF7 cells assessed as cellular growth at 10 uM by SRB assay
RPMI-8226 = assay: Cytotoxicity against human RPMI8226 cells assessed as cellular growth at 10 uM by SRB assay
HL-60(TB) = assay: Cytotoxicity against human HL-60(TB) cells assessed as cellular growth at 10 uM by SRB assay
COLO 205 = assay: Cytotoxicity against human COLO205 cells assessed as cellular growth at 10 uM by SRB assay
TK-10 = assay: Cytotoxicity against human TK10 cells assessed as cellular growth at 10 uM by SRB assay
SR = assay: Cytotoxicity against human SR cells assessed as cellular growth at 10 uM by SRB assay
HCT-15 = assay: Cytotoxicity against human HCT15 cells assessed as cellular growth at 10 uM by SRB assay
SNB-75 = assay: Cytotoxicity against human SNB75 cells assessed as cellular growth at 10 uM by SRB assay
ACHN = assay: Cytotoxicity against human ACHN cells assessed as cellular growth at 10 uM by SRB assay
HCT-116 = assay: Cytotoxicity against human HCT116 cells assessed as cellular growth at 10 uM by SRB assay
Hs-578T = assay: Cytotoxicity against human Hs578T cells assessed as cellular growth at 10 uM by SRB assay
OVCAR-4 = assay: Cytotoxicity against human OVCAR4 cells assessed as cellular growth at 10 uM by SRB assay
SN12C = assay: Cytotoxicity against human SN12C cells assessed as cellular growth at 10 uM by SRB assay
Malme-3M = assay: Cytotoxicity against human MALME-3M cells assessed as cellular growth at 10 uM by SRB assay
DU-145 = assay: Cytotoxicity against human DU145 cells assessed as cellular growth at 10 uM by SRB assay
EKVX = assay: Cytotoxicity against human EKVX cells assessed as cellular growth at 10 uM by SRB assay
MDA-MB-435 = assay: Cytotoxicity against human MDA-MB-435 cells assessed as cellular growth at 10 uM by SRB assay
CAKI-1 = assay: Cytotoxicity against human Caki1 cells assessed as cellular growth at 10 uM by SRB assay
SF-295 = assay: Cytotoxicity against human SF295 cells assessed as cellular growth at 10 uM by SRB assay

`Nc1c(C(=O)NCc2ccccc2)sc2nc3c(cc12)C(=O)CCC3` showed an Activity (T47D) of 106.44%, an Activity (SW-620) of 105.63% and an Activity (BT-549) of 120.38%. For the same compound, the Activity (UACC-257) was 106.3%, the Activity (HCC 2998) was 107.63% and the Activity [1] was 100.02%. The Activity (UACC-62) was 115.69%, the Activity (NCI-H460) was 101.03% and the Activity (K562) was 111.11%. It also gave an Activity (OVCAR-8) of 114.43%, an Activity (LOX IMVI) of 103.06% and an Activity (SF-539) of 105.28%. It also gave an Activity (RXF 393) of 122.76%, an Activity (HOP-92) of 79.65% and an Activity (U-251) of 99.51%. The Activity (A498) was 100.49%, the Activity (UO-31) was 109.24% and the Activity (MDA-MB-468) was 116.37%. For the same compound, the Activity (CCRF-CEM) was 102.77%, the Activity (NCI-H226) was 106.37% and the Activity (SK-MEL-5) was 100.24%. For the same compound, the Activity (SK-OV-3) was 111.91%, the Activity (OVCAR-5) was 113.08% and the Activity (MDA-MB-231) was 111.36%. The Activity (786-0) was 110.1%, the Activity (OVCAR-3) was 115.33% and the Activity (SK-MEL-28) was 118.31%. It also gave an Activity (NCI-H322M) of 123.15%, an Activity (SF-268) of 112.13% and an Activity (MOLT-4) of 119.87%. The Activity (NCI-H23) was 106.63%, the Activity (HOP-62) was 115.1% and the Activity (NCI-H522) was 109.84%. It also gave an Activity (M14) of 113.61%, an Activity (IGROV-1) of 124.94% and an Activity (A549) of 103.07%. The Activity (KM12) was 106.46%, the Activity (SNB-19) was 117.75% and the Activity (HT-29) was 116.55%. It also gave an Activity (SK-MEL-2) of 121.61%, an Activity (PC-3) of 106.49% and an Activity (MCF7) of 110.54%. It also gave an Activity (RPMI-8226) of 109.76%, an Activity (HL-60(TB)) of 119.79% and an Activity (COLO 205) of 133.04%. It also gave an Activity (TK-10) of 115.8%, an Activity (SR) of 116.81% and an Activity (HCT-15) of 105.31%. The Activity (SNB-75) was 113.06%, the Activity (ACHN) was 112.59% and the Activity (HCT-116) was 108.9%. It also gave an Activity (Hs-578T) of 122.77%, an Activity (OVCAR-4) of 117.19% and an Activity (SN12C) of 101.11%. For the same compound, the Activity (Malme-3M) was 139.75% and the Activity (DU-145) was 127.66%.

In the case of `O=C(Nc1nc2ccccc2s1)c1ccc(F)cc1`, the Activity (T47D) was 55.31%, the Activity (SW-620) was 112.1% and the Activity (BT-549) was 109.49%. The Activity (UACC-257) was 107.84%, the Activity (HCC 2998) was 69.88% and the Activity [1] was 95.74%. For the same compound, the Activity (UACC-62) was 89.52%, the Activity (NCI-H460) was 69.18% and the Activity (K562) was 89.96%. For the same compound, the Activity (EKVX) was 77.77%, the Activity (OVCAR-8) was 109.5% and the Activity (MDA-MB-435) was 100.56%. It also gave an Activity (LOX IMVI) of 100.61%, an Activity (SF-539) of 101.66% and an Activity (RXF 393) of 106.77%. It also gave an Activity (HOP-92) of 78.65%, an Activity (U-251) of 99.72% and an Activity (A498) of 89.82%. For the same compound, the Activity (UO-31) was 89.11%, the Activity (MDA-MB-468) was 94.15% and the Activity (CCRF-CEM) was 100.74%. For the same compound, the Activity (CAKI-1) was 62.93%, the Activity (NCI-H226) was 92.69% and the Activity (SK-MEL-5) was 91.3%. For the same compound, the Activity (SK-OV-3) was 108.36%, the Activity (OVCAR-5) was 100.92% and the Activity (MDA-MB-231) was 95.53%. For the same compound, the Activity (786-0) was 107.84%, the Activity (OVCAR-3) was 103.91% and the Activity (SK-MEL-28) was 113.63%. It also gave an Activity (NCI-H322M) of 92.49%, an Activity (SF-268) of 114.42% and an Activity (MOLT-4) of 100.31%. For the same compound, the Activity (NCI-H23) was 89.91%, the Activity (HOP-62) was 106.04% and the Activity (NCI-H522) was 92.24%. The Activity (M14) was 109.51%, the Activity (SF-295) was 103.39% and the Activity (IGROV-1) was 88.87%. It also gave an Activity (A549) of 98.36%, an Activity (KM12) of 52.84% and an Activity (SNB-19) of 126.08%. The Activity (HT-29) was 108.47%, the Activity (SK-MEL-2) was 113.78% and the Activity (PC-3) was 96.56%. For the same compound, the Activity (MCF7) was 68.1%, the Activity (RPMI-8226) was 88.45% and the Activity (HL-60(TB)) was 111.31%. The Activity (COLO 205) was 117.74%, the Activity (TK-10) was 125.36% and the Activity (SR) was 98.39%. It also gave an Activity (HCT-15) of 85.53%, an Activity (SNB-75) of 96.73% and an Activity (ACHN) of 98.03%. For the same compound, the Activity (HCT-116) was 92.81%, the Activity (Hs-578T) was 140.08% and the Activity (OVCAR-4) was 85.42%. The Activity (SN12C) was 108.22%, the Activity (Malme-3M) was 96.2% and the Activity (DU-145) was 108.3%.
